Earlier results as cited in US20220054659A1, “PSMA-TARGETED PAMAM DENDRIMERS FOR SPECIFIC DELIVERY OF IMAGING, CONTRAST AND THERAPEUTIC AGENTS” (The Johns Hopkins University, priority 2018, published 2022).

Biological target: PSMA (Homo sapiens, UniProt Q04609)
Sequence (Q04609 whole entry, species assumed): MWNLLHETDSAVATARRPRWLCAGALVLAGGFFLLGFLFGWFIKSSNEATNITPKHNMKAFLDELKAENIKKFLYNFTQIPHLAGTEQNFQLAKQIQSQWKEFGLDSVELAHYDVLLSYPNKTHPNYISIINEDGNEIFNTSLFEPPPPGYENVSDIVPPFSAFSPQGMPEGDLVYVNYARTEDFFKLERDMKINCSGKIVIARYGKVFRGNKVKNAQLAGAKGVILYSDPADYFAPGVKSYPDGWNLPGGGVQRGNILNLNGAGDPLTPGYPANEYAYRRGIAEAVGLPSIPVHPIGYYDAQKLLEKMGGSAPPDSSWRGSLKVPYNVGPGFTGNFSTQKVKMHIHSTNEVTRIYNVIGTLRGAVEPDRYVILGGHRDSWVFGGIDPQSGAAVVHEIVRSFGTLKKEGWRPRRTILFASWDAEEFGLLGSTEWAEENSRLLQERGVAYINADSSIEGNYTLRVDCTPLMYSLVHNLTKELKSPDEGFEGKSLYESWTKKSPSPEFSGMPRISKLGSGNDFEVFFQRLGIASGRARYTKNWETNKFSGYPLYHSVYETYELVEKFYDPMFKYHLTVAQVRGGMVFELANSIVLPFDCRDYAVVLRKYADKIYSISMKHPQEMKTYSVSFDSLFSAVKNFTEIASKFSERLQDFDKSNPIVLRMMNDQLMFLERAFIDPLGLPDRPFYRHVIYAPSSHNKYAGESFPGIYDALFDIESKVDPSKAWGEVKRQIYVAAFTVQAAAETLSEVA

affinity to PSMA: picomolar
Compound: NCCCC[C@H](NC(=O)N[C@@H](CCC(=O)O)C(=O)O)C(=O)O [Lys-Glu-urea]
